The results in this text go back to patent US8178535B2, “Substituted sulfonamide compounds having bradykinin 1 receptor activity and use thereof as medicaments” (Gruenenthal GmbH, priority 2008, dated 2012).

For assay [1], the target named is T1, human B1R receptor (hB1R) (Homo sapiens, UniProt P46663).
T1 construct: host or cells: CHO K1 cells
T1 sequence (P46663 1-353): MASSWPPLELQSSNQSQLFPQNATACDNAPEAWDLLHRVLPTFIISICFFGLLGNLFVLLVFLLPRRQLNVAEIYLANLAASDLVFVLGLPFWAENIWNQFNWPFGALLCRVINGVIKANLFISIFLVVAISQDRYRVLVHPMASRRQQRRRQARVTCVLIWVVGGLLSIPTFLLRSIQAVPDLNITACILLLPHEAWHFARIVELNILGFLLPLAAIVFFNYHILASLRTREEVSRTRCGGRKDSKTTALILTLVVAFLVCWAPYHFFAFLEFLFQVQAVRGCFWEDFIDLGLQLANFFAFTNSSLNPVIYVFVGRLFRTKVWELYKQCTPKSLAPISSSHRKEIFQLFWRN
The assay can be described thus: FLIPR Ca2+ assay (Fluo-4) on CHO K1 cells stably transfected with the human B1R gene. In kind it is cell-based. The following applies: CHO-K1; test substance 10 μM; agonist Lys-Des-Arg9-bradykinin 0.5 nM; % inhibition compared to the maximum achievable inhibition. The method, then:
(§1) The agonistic or antagonistic action of compounds can be quantified on the bradykinin 1 receptor (B1R) of humans and rats with ectopically expressing cell lines (CHO K1 cells) and with the aid of a Ca^2+-sensitive dye (Fluo-4) in the fluorescent imaging plate reader (FLIPR). The figure in percent activation refers to the Ca^2+ signal after addition of Lys-Des-Arg^9-bradykinin (0.5 nM) and Des-Arg^9-bradykinin (100 nM). Antagonists result in a suppression of the Ca^2+ inflow after the addition of the agonist. Percent inhibition values are given in comparison to the maximum achievable inhibition. The compounds according to the invention act, for example, on the B1R which is implicated in various disease states. This means that the compounds of the invention are useful as pharmaceutically active substances in medicaments for the treatment and/or inhibition of such disease states.
(§2) The agonistic or antagonistic action of substances can be determined on the bradykinin 1 receptor (B1R) of humans and rats by means of the following assay. According to this assay the Ca^2+ inflow through the channel is quantified by means of a Ca^2+-sensitive dye (Fluo-4 type, Molecular Probes Europe BV, Leiden, Netherlands), in a Fluorescent Imaging Plate Reader (FLIPR, Molecular Devices, Sunnyvale, USA).
(§3) Chinese hamster ovary cells (CHO K1 cells) are used, which are stably transfected with the human B1R gene (hB1R cells, Euroscreen s.a., Gosselies, Belgium), or with the B1R gene of rats (rB1R cells, Axxam, Milan, Italy). For functional investigations these cells are plated out on black 96-well plates with a clear floor (BD Biosciences, Heidelberg, Germany) in a density of 20,000/25,000 cells/well. The cells are incubated overnight with 10 vol. % FBS (foetal bovine serum, Gibco Invitrogen GmbH, Karlsruhe, Germany) at 37° C. and 5% CO2 in a culture medium (hB1R cells: Nutrient Mixture Ham's F12, Gibco Invitrogen GmbH, Karlsruhe, Germany; rB1R cells: D-MEM/F12, Gibco Invitrogen GmbH, Karlsruhe, Germany). The following day the cells are charged for 60 minutes at 37° C. with 2.13 μM Fluo-4 (Molecular Probes Europe BV, Leiden, Netherlands) in HBSS buffer (Hank's buffered saline solution, Gibco Invitrogen GmbH, Karlsruhe, Germany) together with […] (Sigma-Aldrich, Taufkirchen, Germany) and 10 mM HEPES (Sigma-Aldrich, Taufkirchen, Germany).
(§4) The plates are then washed twice with HBSS buffer and HBSS buffer is added which additionally contains 0.1% BSA (bovine serum albumin; Sigma-Aldrich, Taufkirchen, Germany), 5.6 mM glucose and 0.05% gelatin (Merck KGaA, Darmstadt, Germany). After further incubation for 20 minutes at room temperature the plates are used for the Ca^2+ measurement in the FLIPR. The Ca^2+-dependent fluorescence is measured both before and after the addition of substances (λex=488 nm, λem=540 nm). The quantification is carried out by measuring the highest fluorescence intensity (FC, fluorescence counts) over time.
(§5) The FLIPR protocol consists of two substance additions. First, test substances (10 μM) are pipetted onto the cells and the Ca^2+ inflow is compared with the control (hB1R: Lys-Des-Arg9-bradykinin 0.5 nM; rB1R: Des-Arg9-bradykinin 100 nM). This gives the result in percent activation referred to the Ca^2+ signal after addition of Lys-Des-Arg9-bradykinin (0.5 nM), bzw. Des-Arg9-bradykinin (100 nM). After 10 minutes' incubation 0.5 nM Lys-Des-Arg9-bradykinin (hB1R) and 100 nM Des-Arg^9-bradykinin (rB1R) are applied and the inflow of Ca^2+ is likewise determined. Antagonists lead to a suppression of the Ca^2+ inflow. The percent inhibition compared to the maximum achievable inhibition is calculated. The compounds show a good activity on both human and rat receptors.
(§6) The agonistic and antagonistic action of the compounds according to the invention on the bradykinin 1 receptor (B1R) of humans and rats were determined as described above. Antagonists lead to a suppression of the Ca^2+ inflow. […]

In assay [2] the target is T2, B1R receptor of rats (rB1R) (Rattus norvegicus, UniProt P97583).
T2 construct: host or cells: CHO K1 cells
T2 sequence (P97583 1-337): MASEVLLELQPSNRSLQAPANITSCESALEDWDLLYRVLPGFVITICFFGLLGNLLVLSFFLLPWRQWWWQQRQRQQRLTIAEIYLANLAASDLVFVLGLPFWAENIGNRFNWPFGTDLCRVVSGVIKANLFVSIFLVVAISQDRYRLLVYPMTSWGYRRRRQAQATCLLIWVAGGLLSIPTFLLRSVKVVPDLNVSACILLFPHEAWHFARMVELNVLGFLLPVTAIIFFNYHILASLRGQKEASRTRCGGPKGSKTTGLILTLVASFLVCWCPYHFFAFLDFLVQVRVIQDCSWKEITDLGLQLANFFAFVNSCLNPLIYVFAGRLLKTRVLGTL
The assay can be described thus: FLIPR Ca2+ assay (Fluo-4) on CHO K1 cells stably transfected with the B1R gene of rats. It is filed as cell-based. Conditions: CHO-K1; test substance 10 μM; agonist Des-Arg9-bradykinin 100 nM; % inhibition compared to the maximum achievable inhibition. The method, then: as §1, §2, §3, §4, §5, §6

In general, inhibition refers to the relative decrease from the control value, in per cent. In the case of `COc1cc(C)c(S(=O)(=O)N2CCCCC2CCC(=O)N2CCn3c(Cc4cccnc4)ccc3C2)c(C)c1` (stereo not drawn) [(113), 3-(1-(4-Methoxy-2,6-dimethylphenylsulfonyl)piperidin-2-yl)-1-(6-(pyridin-3-ylmethyl)-3,4-dihydropyrrolo[1,2-a]pyrazin-2(1H)-yl)propan-1-one], the inhibition at 10 µM in assay [1] amounted to 97%; in assay [2] it was 100%.
On to `Cc1cc(C)c(S(=O)(=O)N2CCCCC2COCC(=O)N2CCn3cccc3C2c2ccc(F)c(F)c2)c(C)c1` (stereo not drawn) [(40), 1-(1-(3,4-difluorophenyl)-3,4-dihydropyrrolo[1,2-a]pyrazin-2(1H)-yl)-2-((1-(mesitylsulfonyl)piperidin-2-yl)methoxy)ethanone], for which the values for the inhibition at 10 µM in assay [1] and in assay [2] were 38% and 100%, respectively.
For the compound `COc1cc(C)c(S(=O)(=O)N2CCCCC2CCCC(=O)N2CCn3cc(CCc4ccncc4)nc3C2)c(C)c1` (stereo not drawn) [(118), 4-(1-(4-Methoxy-2,6-dimethylphenylsulfonyl)piperidin-2-yl)-1-(2-(2-(pyridin-4-yl)ethyl)-5,6-dihydroimidazo[1,2-a]pyrazin-7(8H)-yl)butan-1-one], the inhibition at 10 µM came out at 98% in assay [1] and 102% in assay [2].
For the compound `COc1cc(C)c(S(=O)(=O)N2CCCCC2CCC(=O)N2CCn3cc(CCc4ccncc4)nc3C2)c(C)c1` (stereo not drawn) [(117), 3-(1-(4-Methoxy-2,6-dimethylphenylsulfonyl)piperidin-2-yl)-1-(2-(2-(pyridin-4-yl)ethyl)-5,6-dihydroimidazo[1,2-a]pyrazin-7(8H)-yl)propan-1-one], the results for the inhibition at 10 µM in assay [1] and in assay [2] were 82% and 98%, respectively.
In the case of `O=C(CC1CCCCN1S(=O)(=O)c1cccc(C(F)(F)F)c1)N1CCn2c(CCc3cccnc3)ccc2C1` (stereo not drawn) [(98), 1-(6-(2-(Pyridin-3-yl)ethyl)-3,4-dihydropyrrolo[1,2-a]pyrazin-2(1H)-yl)-2-(1-(3-(trifluoromethyl)phenylsulfonyl)piperidin-2-yl)ethanone], the inhibition at 10 µM in assay [1] and in assay [2] was 90% in each case.
On to `COc1cc(C)c(S(=O)(=O)N2CCCCC2CCCC(=O)N2CCn3c(Cc4cccnc4)ccc3C2)c(C)c1` (stereo not drawn) [(105), 4-(1-(4-Methoxy-2,6-dimethylphenylsulfonyl)piperidin-2-yl)-1-(6-(pyridin-3-ylmethyl)-3,4-dihydropyrrolo[1,2-a]pyrazin-2(1H)-yl)butan-1-one], for which the inhibition at 10 µM in assay [1] came out at 64%; in assay [2], 103%.
For `Cc1cc(C)c(S(=O)(=O)N2CCCCC2COCC(=O)N2CCn3c(CN4CCCC4)ccc3C2c2ccccc2)c(C)c1` (stereo not drawn) [(47), 2-((1-(mesitylsulfonyl)piperidin-2-yl)methoxy)-1-(1-phenyl-6-(pyrrolidin-1-yl-methyl)-3,4-dihydropyrrolo[1,2-a]pyrazin-2(1H)-yl)ethanone], in that order: 101% and 103%.
The like results for `COc1cc(C)c(S(=O)(=O)N2CCCCC2CCC(=O)N2CCn3c(CCc4ccncc4)ccc3C2)c(C)c1` (stereo not drawn) [(108), 3-(1-(4-Methoxy-2,6-dimethylphenylsulfonyl)piperidin-2-yl)-1-(6-(2-(pyridin-4-yl)ethyl)-3,4-dihydropyrrolo[1,2-a]pyrazin-2(1H)-yl)propan-1-one] were, in that order, 92% and 99%.
Turning to `O=C(CC1CCCCN1S(=O)(=O)c1cccc(C(F)(F)F)c1)N1CCn2c(Cc3cccnc3)ccc2C1` (stereo not drawn) [(97), 1-(6-(Pyridin-3-ylmethyl)-3,4-dihydropyrrolo[1,2-a]pyrazin-2(1H)-yl)-2-(1-(3-(trifluoromethyl)phenylsulfonyl)piperidin-2-yl)ethanone], the inhibition at 10 µM came out at 80% in assay [1] and 103% in assay [2].
Take `COc1cc(C)c(S(=O)(=O)N2CCCCC2COCC(=O)N2CCn3cc(-c4ccncc4)nc3C2)c(C)c1` (stereo not drawn) [(112), 2-((1-(4-Methoxy-2,6-dimethylphenylsulfonyl)piperidin-2-yl)methoxy)-1-(2-(pyridin-4-yl)-5,6-dihydroimidazo[1,2-a]pyrazin-7(8H)-yl)ethanone]: the inhibition at 10 µM in assay [1] came to 100%; in assay [2], 101%.
Take `Cc1cc(C)c(S(=O)(=O)N2CCCCC2COCC(=O)N2CCn3cccc3C2c2cccc(F)c2)c(C)c1` (stereo not drawn) [(42), 1-(1-(3-fluorophenyl)-3,4-dihydropyrrolo[1,2-a]pyrazin-2(1H)-yl)-2-((1-(mesitylsulfonyl)piperidin-2-yl)methoxy)ethanone]: the inhibition at 10 µM in assay [1] was 73%; in assay [2], 99%.
In the case of `Cc1cc(C)c(S(=O)(=O)N2CCCCC2COCC(=O)N2CCn3cccc3C2c2cccs2)c(C)c1` (stereo not drawn) [(43), 2-((1-(mesitylsulfonyl)piperidin-2-yl)methoxy)-1-(1-(thiophen-2-yl)-3,4-dihydropyrrolo[1,2-a]pyrazin-2(1H)-yl)ethanone], the inhibition at 10 µM in assay [1] came to 96%; in assay [2], 98%.
For `COc1cc(C)c(S(=O)(=O)N2CCCCC2COCC(=O)N2CCn3c(CCc4ccncc4)ccc3C2)c(C)c1` (stereo not drawn) [(106), 2-((1-(4-Methoxy-2,6-dimethylphenylsulfonyl)piperidin-2-yl)methoxy)-1-(6-(2-(pyridin-4-yl)ethyl)-3,4-dihydropyrrolo[1,2-a]pyrazin-2(1H)-yl)ethanone], in that order: 99% and 99%.
For `O=C(COCC1CCc2ccccc2N1S(=O)(=O)c1ccc(Cl)c(Cl)c1)N1CCn2c(CN3CCCC3)ccc2C1` (stereo not drawn) [(10), 2-((1-(3,4-dichlorophenylsulfonyl)-1,2,3,4-tetrahydroquinolin-2-yl)methoxy)-1-(6-(pyrrolidin-1-ylmethyl)-3,4-dihydropyrrolo[1,2-a]pyrazin-2(1H)-yl)ethanone], in that order: 101% and 91%.
The like results for `Cc1cc(C)c(S(=O)(=O)N2CCCCC2COCC(=O)N2CCn3c(CN4CCCCC4)ccc3C2c2ccccc2)c(C)c1` (stereo not drawn) [(48), 2-((1-(mesitylsulfonyl)piperidin-2-yl)methoxy)-1-(1-phenyl-6-(piperidin-1-yl-methyl)-3,4-dihydropyrrolo[1,2-a]pyrazin-2(1H)-yl)ethanone] were, in that order, 103% and 103%.
